Reference: paper PMC11197535, “Reprogramming of phytopathogen transcriptome by a non-bactericidal pesticide residue alleviates its virulence in rice” (Fundamental Research, 2022)
pKd: −log10 of the molar value.

Molecular target: T1, TroK (Burkholderia plantarii, UniProt A0A0B6RRK0)
T1 construct: gene BGL_1c34780
Assay: SPR (Biacore T200, multiple cycle kinetics)
Type: binding
Conditions: TroK immobilised on CM7 chip by amine coupling; 10 mM PBS, pH 7.4, 150 mM NaCl, DMSO; free ATT
Text: SPR (Biacore T200, multiple cycle kinetics) on TroK | thiazole could directly bind to the purified TroK in the transmembrane region

T1 sequence (A0A0B6RRK0 entry or part of it): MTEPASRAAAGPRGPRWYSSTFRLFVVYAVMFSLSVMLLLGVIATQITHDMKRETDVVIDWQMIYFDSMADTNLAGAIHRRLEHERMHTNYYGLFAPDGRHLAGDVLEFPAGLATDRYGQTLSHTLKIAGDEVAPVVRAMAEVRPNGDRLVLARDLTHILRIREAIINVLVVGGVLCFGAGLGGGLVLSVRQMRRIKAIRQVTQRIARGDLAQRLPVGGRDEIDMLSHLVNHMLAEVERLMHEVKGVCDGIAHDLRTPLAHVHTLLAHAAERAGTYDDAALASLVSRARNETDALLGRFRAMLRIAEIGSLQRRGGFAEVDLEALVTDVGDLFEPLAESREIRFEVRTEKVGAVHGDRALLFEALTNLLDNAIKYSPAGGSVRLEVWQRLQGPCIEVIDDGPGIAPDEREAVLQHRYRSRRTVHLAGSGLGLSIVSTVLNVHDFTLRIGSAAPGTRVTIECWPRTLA

Structure (SMILES): Nc1nnc(S)s1 [ATT, 5-Amino-1,3,4-thiadiazole-2-thiol]
- pKd: 6.14
